The results in this text go back to ChEMBL document CHEMBL1139715, “Synthesis of 3,6-bis[H-Tyr/H-Dmt-NH(CH2)m,n]-2(1H)pyrazinone derivatives: function of alkyl chain length on opioid activity” (Bioorg Med Chem Lett, 2006).

One may read the Ki as the equilibrium dissociation constant of an inhibitor or competing ligand from its target. A lower Ki goes with tighter binding. In general, IC50 refers to the concentration at which inhibition is half-maximal. What is called inhibition is how much of the control response was suppressed.

A value given as a limit tells only on which side of the number the result lay.

Assay [1] deals with Delta-type opioid receptor (Rattus norvegicus, UniProt P33533). Briefly: Displacement of [3H]deltorphin II from delta opioid receptor in rat synaptosomes P2 fraction. In kind it is subcellular, Brain. (In general: Loss of bound radioactivity is the signal in a displacement assay; it reports binding, not function.)
The target in assay [2] is Mu-type opioid receptor (Rattus norvegicus, UniProt P33535). Briefly: Displacement of [3H]DAMGO from mu opioid receptor in rat synaptosomes P2 fraction. In kind it is subcellular, Brain.
The target of assay [3] is Opioid receptors; mu & delta (Rattus norvegicus) (UniProt P33533+P33535). Briefly: Selectivity for rat mu opioid receptor over rat delta opioid receptor. In kind it is protein assay.
Assay [4] has as its target Delta-type opioid receptor (Mus musculus, UniProt P32300). Briefly: (§1) Activity at delta opioid receptor assessed as inhibition of muscle contraction in mouse vas deferens assay. Format: functional, tissue-based.
Assay [5] addresses Delta-type opioid receptor (Mus musculus) (UniProt P32300). The assay is described as §1. In kind it is functional, tissue-based. Conditions: for inhibition: concentration not given here; for Activity: filed as partial agonist.
The target in assay [6] is Mu-type opioid receptor (Cavia porcellus, UniProt P97266). Briefly: Activity at mu opioid receptor by guinea pig ileum assay. In kind it is functional, tissue-based.
Mu-type opioid receptor (Cavia porcellus, UniProt P97266), sequence (P97266 whole entry): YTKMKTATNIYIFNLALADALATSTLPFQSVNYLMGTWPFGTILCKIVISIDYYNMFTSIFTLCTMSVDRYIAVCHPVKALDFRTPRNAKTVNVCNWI

Opioid receptors; mu & delta (Rattus norvegicus), sequence (P33533 whole entry, looked up): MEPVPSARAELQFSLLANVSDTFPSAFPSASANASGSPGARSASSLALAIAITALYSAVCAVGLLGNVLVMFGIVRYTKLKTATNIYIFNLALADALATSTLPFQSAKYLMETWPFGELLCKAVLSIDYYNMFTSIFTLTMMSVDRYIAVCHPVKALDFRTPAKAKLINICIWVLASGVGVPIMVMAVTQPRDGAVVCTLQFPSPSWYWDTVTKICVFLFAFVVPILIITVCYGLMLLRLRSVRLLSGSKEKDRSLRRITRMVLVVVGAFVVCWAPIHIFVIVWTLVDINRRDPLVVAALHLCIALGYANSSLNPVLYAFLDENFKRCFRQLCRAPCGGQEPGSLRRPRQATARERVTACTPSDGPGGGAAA
Opioid receptors; mu & delta (Rattus norvegicus), sequence (P33535 whole entry, looked up): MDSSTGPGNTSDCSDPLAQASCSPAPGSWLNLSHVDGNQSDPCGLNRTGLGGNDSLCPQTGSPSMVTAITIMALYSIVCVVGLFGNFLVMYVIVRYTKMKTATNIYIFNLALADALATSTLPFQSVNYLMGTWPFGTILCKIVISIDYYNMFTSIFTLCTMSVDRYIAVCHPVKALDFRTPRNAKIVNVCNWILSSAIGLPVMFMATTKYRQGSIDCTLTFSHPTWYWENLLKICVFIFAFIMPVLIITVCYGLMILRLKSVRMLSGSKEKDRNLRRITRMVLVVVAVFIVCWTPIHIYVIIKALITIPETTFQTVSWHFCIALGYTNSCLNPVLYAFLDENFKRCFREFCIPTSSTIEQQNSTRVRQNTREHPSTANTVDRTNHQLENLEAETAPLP
Delta-type opioid receptor (Rattus norvegicus, UniProt P33533), sequence (P33533 whole entry): as the sequence (P33533 whole entry, looked up) above
Delta-type opioid receptor (Mus musculus), sequence (P32300 whole entry): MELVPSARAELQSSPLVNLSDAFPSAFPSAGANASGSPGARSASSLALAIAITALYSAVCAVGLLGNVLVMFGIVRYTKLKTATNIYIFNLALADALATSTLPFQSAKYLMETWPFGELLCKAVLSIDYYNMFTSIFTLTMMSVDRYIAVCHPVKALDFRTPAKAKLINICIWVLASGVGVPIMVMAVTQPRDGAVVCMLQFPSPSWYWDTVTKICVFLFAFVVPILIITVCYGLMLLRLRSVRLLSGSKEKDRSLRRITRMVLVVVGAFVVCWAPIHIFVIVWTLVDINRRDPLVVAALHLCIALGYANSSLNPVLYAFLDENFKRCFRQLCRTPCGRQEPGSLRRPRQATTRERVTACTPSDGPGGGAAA
Mu-type opioid receptor (Rattus norvegicus, UniProt P33535), sequence (P33535 whole entry): as the sequence (P33535 whole entry, looked up) above
Delta-type opioid receptor (Mus musculus, UniProt P32300), sequence (P32300 whole entry): as the sequence (P32300 whole entry) above

With `Cc1nc(CCCCNC(=O)[C@@H](N)Cc2ccc(O)cc2)c(=O)[nH]c1CCCNC(=O)[C@@H](N)Cc1ccc(O)cc1`, the values for the Ki in assay [1] and in assay [2] were 924 nM and 7.58 nM, respectively. For the same molecule, the Ratio Ki in assay [3] came out at 220.
On to `Cc1cc(O)cc(C)c1C[C@H](N)C(=O)NCCCCc1nc(C)c(CCCNC(=O)[C@@H](N)Cc2c(C)cc(O)cc2C)[nH]c1=O`, for which the Ki came out at 31.9 nM in assay [1] and 0.021 nM in assay [2]. For the same molecule, the Ratio Ki in assay [3] was 1520. Also, the IC50 in assay [4] worked out at 25.8 nM; in assay [6] it was 1.79 nM. Further, the inhibition in assay [5] is 60%. Also, the Activity result in assay [5] is “Partial agonist”.
Regarding `Cc1cc(O)cc(C)c1C[C@H](N)C(=O)NCCCCc1[nH]c(=O)c(CCCNC(=O)[C@@H](N)Cc2c(C)cc(O)cc2C)nc1C`, the Ki turned out to be 18.8 nM in assay [1] and 0.051 nM in assay [2]. The Ratio Ki in assay [3] stood at 369. In addition, the IC50 in assay [4] was greater than 10000 nM; in assay [6] it was 4.93 nM. For the same molecule, in assay [5], the inhibition came to 44%. Also, the Activity entry in assay [5] is “Partial agonist”.
For the molecule `Cc1nc(CCCNC(=O)[C@@H](N)Cc2ccc(O)cc2)c(=O)[nH]c1CCCCNC(=O)[C@@H](N)Cc1ccc(O)cc1`, the figures for the Ki in assay [1] and in assay [2] were 2770 nM and 27.4 nM, respectively. In addition, the Ratio Ki in assay [3] was found to be 65.
